{
  "source": "patent US20050282743A1",
  "about": "“Molecular interactions in cells” (Arbor Vita Corporation, priority 2001, published 2005)",
  "key": {"[1]": {"tested_on": "PDZ-domain polypeptide (GST/PDZ fusion protein)", "assay": "G assay (G0): biotinylated PL peptide 20 uM binding to immobilized GST/PDZ fusion protein", "conditions": "G Assay of Example 3", "procedure": "“G Assay”—Detection of PDZ-Ligand Binding Using Immobilized PDZ-Domain Fusion Polypeptide\nIn other assays, a GST/PDZ fusion protein is immobilized on a surface (“G” assay). The binding of labeled PL peptide (e.g., as listed in TABLE 8) to this surface is then measured. Typically, the assay is carried out as follows:\n(1) A PDZ-domain polypeptide is bound to a surface, e.g. a protein binding surface. In a preferred embodiment, a GST/PDZ fusion protein containing one or more PDZ domains is bound to a polystyrene 96-well plate. […] In some instances, the GST/PDZ fusion protein is bound via an anti-GST antibody that is coated onto the 96-well plate. Adequate binding to the plate can be achieved when: • a. […]\n(3) The binding of the biotinylated peptide to the GST/PDZ fusion protein surface can be detected using a variety of methods and detectors known to one of skill in the art. […] The reaction of the HRP and its substrate is terminated by addition of 100 uL per well of 1M sulfuric acid, and the absorbance of each well of the plate is read at 450 nm.\n(4) Specific binding of a PL peptide and a PDZ domain polypeptide is determined by comparing the signal from the well(s) in which the PL peptide and PDZ domain polypeptide are combined, with the background signal(s). […]"}, "[2]": {"molecular_target": "T1, PDZ protein (GST-PDZ fusion) (Homo sapiens, UniProt O14907)", "T1 construct": "made in house; host or cells: E. coli (DH5alpha, BL21 or JM109)", "T1 sequence (O14907 1-124)": "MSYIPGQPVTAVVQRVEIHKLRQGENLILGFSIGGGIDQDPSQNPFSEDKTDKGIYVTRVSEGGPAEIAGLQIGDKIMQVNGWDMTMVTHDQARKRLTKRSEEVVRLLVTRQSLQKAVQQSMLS", "assay": "G' assay (10 uM PL peptide), results of TABLE 7 and TABLE 12", "assay_type": "binding", "conditions": "PDZ TIP1, PDZ Domain 1", "how_it_was_run": "(§1)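 Binding classes derive from A450 nm of bound biotin-tagged PL peptide. A score of 5 needs A450 above 4 in more than two repeats.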"}, "[3]": {"tested_on": "PDZ protein (GST-PDZ fusion)", "assay": "G' assay (10 uM PL peptide), results of TABLE 7 and TABLE 12", "assay_type": "binding", "how_it_was_run": "as §1"}, "[4]": {"molecular_target": "T2, PDZ protein (GST-PDZ fusion) (Homo sapiens, UniProt Q02410)", "T2 construct": "made in house; host or cells: E. coli (DH5alpha, BL21 or JM109)", "T2 sequence (Q02410 1-837)": "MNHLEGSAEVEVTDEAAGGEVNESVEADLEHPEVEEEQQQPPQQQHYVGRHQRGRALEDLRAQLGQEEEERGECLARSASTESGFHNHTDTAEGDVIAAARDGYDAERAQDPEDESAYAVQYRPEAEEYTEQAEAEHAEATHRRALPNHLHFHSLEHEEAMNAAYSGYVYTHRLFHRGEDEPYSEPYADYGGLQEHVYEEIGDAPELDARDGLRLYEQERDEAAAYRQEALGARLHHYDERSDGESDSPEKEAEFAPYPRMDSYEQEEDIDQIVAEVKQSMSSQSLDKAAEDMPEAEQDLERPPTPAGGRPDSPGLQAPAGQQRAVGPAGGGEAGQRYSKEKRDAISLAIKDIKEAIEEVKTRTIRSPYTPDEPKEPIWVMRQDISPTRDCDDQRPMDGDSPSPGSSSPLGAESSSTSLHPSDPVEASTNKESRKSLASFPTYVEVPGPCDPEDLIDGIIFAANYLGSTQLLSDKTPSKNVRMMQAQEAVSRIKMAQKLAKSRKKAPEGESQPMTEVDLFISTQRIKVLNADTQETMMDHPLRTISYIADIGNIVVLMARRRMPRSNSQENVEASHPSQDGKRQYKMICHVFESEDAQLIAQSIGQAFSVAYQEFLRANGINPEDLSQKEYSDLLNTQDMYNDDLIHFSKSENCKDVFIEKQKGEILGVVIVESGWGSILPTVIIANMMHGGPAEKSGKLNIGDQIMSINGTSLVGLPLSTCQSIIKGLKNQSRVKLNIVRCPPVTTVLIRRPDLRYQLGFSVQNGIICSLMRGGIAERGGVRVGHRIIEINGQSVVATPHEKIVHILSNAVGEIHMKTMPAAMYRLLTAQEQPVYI", "assay": "G' assay (10 uM PL peptide), results of TABLE 7 and TABLE 12", "assay_type": "binding", "conditions": "PDZ Mint 1, PDZ Domain 2", "how_it_was_run": "as §1"}, "[5]": {"molecular_target": "T3, PDZ protein (GST-PDZ fusion) (Homo sapiens, UniProt Q9Y2H9)", "T3 construct": "made in house; host or cells: E. coli (DH5alpha, BL21 or JM109)", "T3 sequence (Q9Y2H9 whole entry, the tested form may be a part)": "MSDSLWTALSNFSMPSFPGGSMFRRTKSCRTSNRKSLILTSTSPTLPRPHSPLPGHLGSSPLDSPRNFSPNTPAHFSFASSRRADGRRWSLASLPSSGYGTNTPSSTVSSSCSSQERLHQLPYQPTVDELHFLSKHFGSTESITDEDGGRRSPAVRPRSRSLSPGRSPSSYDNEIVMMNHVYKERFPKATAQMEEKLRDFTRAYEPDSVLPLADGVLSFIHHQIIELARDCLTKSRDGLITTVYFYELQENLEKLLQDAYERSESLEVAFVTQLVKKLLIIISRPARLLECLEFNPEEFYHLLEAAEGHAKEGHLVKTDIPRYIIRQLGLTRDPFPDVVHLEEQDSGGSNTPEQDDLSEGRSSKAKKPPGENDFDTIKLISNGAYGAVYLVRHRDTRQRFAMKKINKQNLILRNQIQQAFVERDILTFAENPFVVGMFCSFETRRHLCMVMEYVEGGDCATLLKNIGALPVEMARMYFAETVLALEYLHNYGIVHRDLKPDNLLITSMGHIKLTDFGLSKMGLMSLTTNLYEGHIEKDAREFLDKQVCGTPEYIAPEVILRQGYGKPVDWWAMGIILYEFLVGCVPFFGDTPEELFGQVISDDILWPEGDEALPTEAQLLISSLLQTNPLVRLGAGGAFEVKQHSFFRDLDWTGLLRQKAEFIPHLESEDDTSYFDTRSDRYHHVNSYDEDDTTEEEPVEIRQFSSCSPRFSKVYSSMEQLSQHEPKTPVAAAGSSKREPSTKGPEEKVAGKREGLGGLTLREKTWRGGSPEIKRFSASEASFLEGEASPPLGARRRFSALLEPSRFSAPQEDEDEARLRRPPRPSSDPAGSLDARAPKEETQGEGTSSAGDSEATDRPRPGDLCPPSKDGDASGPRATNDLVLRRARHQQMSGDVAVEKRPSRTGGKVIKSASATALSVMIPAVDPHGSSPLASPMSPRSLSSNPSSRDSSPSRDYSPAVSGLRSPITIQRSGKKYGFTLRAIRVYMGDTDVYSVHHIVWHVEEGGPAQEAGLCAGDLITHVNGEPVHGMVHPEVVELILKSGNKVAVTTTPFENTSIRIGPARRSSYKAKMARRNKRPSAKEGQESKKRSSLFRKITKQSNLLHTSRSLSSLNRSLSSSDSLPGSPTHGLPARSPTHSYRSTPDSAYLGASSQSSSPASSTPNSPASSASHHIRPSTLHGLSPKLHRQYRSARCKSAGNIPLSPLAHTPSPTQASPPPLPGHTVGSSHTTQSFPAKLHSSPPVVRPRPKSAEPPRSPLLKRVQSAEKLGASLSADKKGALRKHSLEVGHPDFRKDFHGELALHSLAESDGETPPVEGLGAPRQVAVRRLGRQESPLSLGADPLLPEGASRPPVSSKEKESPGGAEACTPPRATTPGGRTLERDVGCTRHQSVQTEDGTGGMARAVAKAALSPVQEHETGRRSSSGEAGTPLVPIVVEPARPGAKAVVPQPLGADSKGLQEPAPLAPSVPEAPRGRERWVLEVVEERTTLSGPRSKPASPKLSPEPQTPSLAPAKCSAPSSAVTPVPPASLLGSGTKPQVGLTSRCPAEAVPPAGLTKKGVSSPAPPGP", "assay": "G' assay (10 uM PL peptide), results of TABLE 7 and TABLE 12", "assay_type": "binding", "conditions": "PDZ KIAA0973, PDZ Domain 1", "how_it_was_run": "as §1"}, "[6]": {"molecular_target": "T4, KIAA807 (Homo sapiens, UniProt Q6P0Q8)", "T4 construct": "made in house; host or cells: E. coli (DH5alpha, BL21 or JM109)", "T4 sequence (Q6P0Q8 1104-1192 limits assumed)": "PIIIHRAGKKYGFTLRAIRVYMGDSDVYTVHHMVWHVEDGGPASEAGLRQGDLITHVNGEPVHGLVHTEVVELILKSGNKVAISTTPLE", "assay": "G' assay, TABLE 12", "assay_type": "binding", "conditions": "A450 nm class of biotinylated PL peptide bound; 0 in conc columns = peptide 10 uM, protein 5 ug/ml", "procedure": "(§2) The third column labeled “Peptide Optimal Concentration” in the tables is a number reflective of the binding interaction between the PL protein and PDZ protein. […] The column labeled “Protein Optimal Concentration” refers to the protein concentration used to assay PL interaction (in ug/ml); a ‘0’ is indicative of 5 ug/ml protein concentration; any other value represents the concentration (in ug/ml) used to determine the dissociation constant for a given interaction.\n(§3) Finally, the seventh column labeled “Classification” is another measure of the level of binding. In particular, it provides an absorbance value at 450 nm which indicates the amount of PL peptide bound to the PDZ protein. The following numerical values have the following meanings: ‘1’—A450 nm 0-1; ‘2’—A450 nm 1-2; ‘3’—A450 nm 2-3; ‘4’—A450 nm 3-4; ‘5’—A450 nm of 4 more than 2× repeated; ‘0’—A450 nm 0, i.e., not found to interact. Thus, higher numbers indicate stronger interactions.\n(§4) For convenience, the assay conditions described in this section are referred to as the “G′ assay” and the “G″ assay,” with the specific conditions described in the preceding section on G assays being referred to as the “G^0 assay.” The “G′ assay” is identical to the “G^0 assay” except at step (2) the peptide concentration is 10 uM instead of 20 uM. […] Correspondingly, it slightly increases the certainty that detected interactions are of sufficient affinity and half-life to be of biological importance and useful therapeutic targets."}, "[7]": {"molecular_target": "T5, Mint 1 (PDZ Domain 1, 2) (Homo sapiens, UniProt Q02410)", "T5 construct": "When more than one PDZ domain was cloned, the DNA portion cloned represents the PDZ domains and the cDNA portion located between individual domains; made in house; host or cells: E. coli (DH5alpha, BL21 or JM109)", "T5 sequence (Q02410 652-828 limits assumed)": "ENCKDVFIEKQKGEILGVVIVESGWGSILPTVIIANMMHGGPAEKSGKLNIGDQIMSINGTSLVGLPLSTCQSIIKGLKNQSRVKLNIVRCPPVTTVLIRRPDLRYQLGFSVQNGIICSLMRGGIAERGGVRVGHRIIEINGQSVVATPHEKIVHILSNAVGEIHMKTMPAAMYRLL", "assay": "G' assay, TABLE 12", "assay_type": "binding", "conditions": "A450 nm class of biotinylated PL peptide bound; 0 in conc columns = peptide 10 uM, protein 5 ug/ml", "procedure": "as §2, §3, §4"}, "[8]": {"molecular_target": "T6, KIAA0807(S) (PDZ Domain 1) (Homo sapiens, UniProt Q6P0Q8)", "T6 construct": "made in house; host or cells: E. coli (DH5alpha, BL21 or JM109)", "T6 sequence (Q6P0Q8 with tags, fused parts or gaps)": "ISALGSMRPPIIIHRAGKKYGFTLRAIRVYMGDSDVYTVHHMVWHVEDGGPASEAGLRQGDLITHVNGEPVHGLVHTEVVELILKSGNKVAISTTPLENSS", "assay": "G' assay and Kd titration, TABLE 12", "assay_type": "binding", "conditions": "A450 nm class of biotinylated PL peptide bound; 0 in conc columns = peptide 10 uM, protein 5 ug/ml", "procedure": "as §2, §3\nFor convenience, the assay conditions described in this section are referred to as the “G′ assay” and the “G″ assay,” with the specific conditions described in the preceding section on G assays being referred to as the “G^0 assay.” The “G′ assay” is identical to the “G^0 assay” except at step (2) the peptide concentration is 10 uM instead of 20 uM."}, "[9]": {"tested_on": "Mouse T cell lines stimulated with anti-mouse CD3", "assay": "T cell stimulation assay, anti-mouse CD3, IFNγ ELISA (FIG. 1B)", "assay_type": "cell-based", "conditions": "10 μM Tat-peptide; compared to Tat-peptide alone", "procedure": "Cell Cultures Cells were maintained and tested in RPMI 1640 media supplemented with 10% fetal calf serum (HyClone), 2 mM glutamine, 10 mM Hepes, 100 U/ml penicillin, 100 μg/ml streptomycin, 0.1 mM non-essential amino acids, 1 mM sodium pyruvate, and 50 μM beta mercaptoethanol.\nSupernatants were assayed for cytokine production following activation of T cell lines. Mouse T cell lines were stimulated using two different methods, either with antigen and antigen presenting cells or anti-mouse CD3.\nAntibody against mouse CD3 (Pharmigen #145-2C11) was coated overnight at 4° C. using 96-well flat bottom Elisa plates at a final concentration of 0.5 μg/ml, diluted in PBS. Just prior to use, plates were washed three times with 200 μl/well PBS to remove excess anti-CD3. […]\nIFNγ was measured from cell supernatants, described above, at ambient temperature using the Endogen, Inc. ELISA protocol 3. […] The presence of IFNγ was detected with a biotin-labeled anti-mouse IFNγ monoclonal antibody (MM700B, Endogen, Inc.,). […] The absorbance at 450 nm was measured using a microtiter plate reader (Thermo Max, Molecular Devices) and the concentration of unknown IFNγ from cell supernatants was calculated from a standard curve generated by Softmax Pro software (Molecular Devices)."}},
  "note": "Ends that are not written are not given here. * marks the point of attachment. Biotin = O=C1N[C@H]2[C@H](CS[C@H]2CCCCC(=O)*)N1",
  "data": [
    {"sequence": "GGGRGSGLAGGSRGGGQSRQ [HPV E6 77]", "values": [
      {"measurement": "binding of E6 C-terminal peptides to a variety of PDZ domains", "setting": "[1]", "result": "did not bind any of the PDZ domains tested"},
      {"measurement": "Classification", "setting": "[2]", "result": "0 (A450 nm 0, i.e., not found to interact)"},
      {"measurement": "Classification", "setting": "[3]; PDZ BAI-1, PDZ Domain 2", "result": "0 (A450 nm 0, i.e., not found to interact)"}
    ]},
    {"sequence": "HAMNAAPRAMENAPALRTSH (Biotin-HAMNAAPRAMENAPALRTSH) [HPV E6 57]", "values": [
      {"measurement": "binding of E6 C-terminal peptides to a variety of PDZ domains", "setting": "[1]", "result": "did not bind any of the PDZ domains tested"}
    ]},
    {"sequence": "KKGTYLTDETHREVKFTSL (Biotin-KKGTYLTDETHREVKFTSL) [CD46]", "values": [
      {"measurement": "Classification", "setting": "[4]", "result": "1 (A450 nm 0-1)"},
      {"measurement": "Classification", "setting": "[5]", "result": "2 (A450 nm 1-2)"},
      {"measurement": "Classification", "setting": "[3]; PDZ BAI-1, PDZ Domain 5", "result": "1 (A450 nm 0-1)"},
      {"measurement": "PDZ proteins bound by the PL (TABLE 7)", "setting": "[3]; as cited in the text from TABLE 7", "result": "KIAA0973, Mint 1, KIAA807, BAI-1, KIA0807(S)"},
      {"measurement": "Classification", "setting": "[6]", "result": "4 (A450 nm 3-4)"},
      {"measurement": "Classification", "setting": "[7]", "result": "1 (A450 nm 0-1)"},
      {"measurement": "Classification", "setting": "[8]", "result": "5 (A450 nm of 4 more than 2× repeated)"}
    ]},
    {"sequence": "GYGRKKRRQRRRGMTSSSSVV", "values": [
      {"measurement": "T cell activation mediated by monoclonal anti-CD3 (IFNγ production)", "setting": "[9]", "result": "inhibited T cell activation"}
    ]},
    {"sequence": "GYGRKKRRQRRRGSISSSAEV [Tat-CLASP1 fusion peptide]", "values": [
      {"measurement": "T cell activation mediated by monoclonal anti-CD3 (IFNγ production)", "setting": "[9]", "result": "did not inhibit T cell activation"}
    ]}
  ]
}
